In patent US6239126A, “Arylpiperidine and aryl-1,2,5,6-tetra-hydropyridine urea derivatives” (American Home Products Corporation, priority 1999, dated 2001):
Like-named read-outs stand apart in the source and are kept apart here.

Tests used:
human 5HT1A receptor [1] = biological target: T1, human 5HT1A receptor (Homo sapiens, UniProt P08908); experiment: 5-HT1A Receptor Intrinsic Activity Assay, agonist activity (cAMP in forskolin-treated CHO cells stably transfected with the human 5-HT1A receptor); format: cell-based; conditions: read-out: cAMP Emax
T1 construct: expressed in transfected cells; host or cells: CHO cells, stably transfected
T1 sequence (P08908 1-422): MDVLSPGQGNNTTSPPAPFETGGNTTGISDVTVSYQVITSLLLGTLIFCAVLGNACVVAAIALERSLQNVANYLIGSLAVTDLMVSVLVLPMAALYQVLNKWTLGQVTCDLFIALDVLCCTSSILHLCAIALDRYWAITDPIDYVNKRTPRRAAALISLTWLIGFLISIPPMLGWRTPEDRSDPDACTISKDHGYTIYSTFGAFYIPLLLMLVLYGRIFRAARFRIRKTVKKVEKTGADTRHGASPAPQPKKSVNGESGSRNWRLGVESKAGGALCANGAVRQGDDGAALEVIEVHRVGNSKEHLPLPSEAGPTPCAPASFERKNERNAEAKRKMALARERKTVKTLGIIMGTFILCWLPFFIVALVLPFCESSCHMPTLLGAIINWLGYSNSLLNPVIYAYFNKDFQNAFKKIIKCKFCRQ
Method: (§1) The intrinsic activity of compounds of the present invention was established by testing the claimed compounds ability to reverse the stimulation of cyclic adenosinemonophosphate (cAMP) in CHO cells stably transfected with the human 5-HT1A receptor.
(§2) Stably transfected CHO cells were grown in DMEM containing 10% heat inactivated FBS and non-essential amino acids. The cells are plated at a density of […] cells per well in a 24 well plate and incubated for 2 days in a CO2 incubator. On the second day, the media is replaced with 0.5 mL treatment buffer (DMEM +25 mM HEPES, 5 mM theophylline, 10 μM pargyline) and incubated for 10 minutes at 37° C. Wells are treated with forskolin (1 μM final concentration) followed immediately by the test compound (0.1 and 1 μM for initial screen) and incubated for an additional 10 minutes at 37° C. The reaction is terminated by removal of the media and addition of 0.5 mL ice cold assay buffer (supplied in the RIA kit). Plates are stored at -20° C. prior to assessment of cAMP formation by RIA. EC50 values are determined for the active test compounds. Compounds shown to have no agonist activities (Emax=0%) are further analyzed for their ability to reverse agonist induced activity. In separate experiments, 6 concentrations of antagonist are preincubated for 20 minutes prior to the addition of agonist and forskolin. Cells are harvested as described above. The cAMP kit is supplied by Amershan and the RIA is performed as per kit instructions, and calculations of IC50 performed by GraphPad Prism.

human 5HT1A receptor [2] = biological target: T1, human 5HT1A receptor; experiment: 5-HT1A Receptor Intrinsic Activity Assay, ability to reverse agonist induced activity (cAMP, CHO cells stably transfected with the human 5-HT1A receptor); format: cell-based; conditions: reversal of agonist induced activity; 6 concentrations of antagonist preincubated 20 minutes prior to agonist and forskolin
Method: as §1
as §2, with “The cAMP kit is supplied by Amershan and the RIA is performed as per kit instructions, and calculations of IC50 performed by GraphPad Prism.” left out

human 5HT1A receptor [3] = biological target: T1, human 5HT1A receptor; experiment: 5-HT1A Receptor Binding Assay (displacement of [^3 H] 8-OH-DPAT binding in CHO cells stably transfected with human 5HT1A receptor)
Method: High affinity for the serotonin 5-HT1A receptor was established by testing a compound's ability to displace [^3 H] 8-OH-DPAT binding in CHO cells stably transfected with human 5HT1A receptor. Stably transfected CHO cells are grown in DMEM containing 10% heat inactivated FBS and non-essential amino acids. Cells are scraped off the plate, transferred to centrifuge tubes, and washed twice by centrifugation (2000 rpm for 10 min., 4° C.) in buffer (50 mM Tris pH 7.5). The resulting pellets are aliquoted and placed at -80° C. On the day of assay, the cells are thawed on ice and resuspended in buffer. The binding assay is performed in a 96 well microtiter plate in a total volume of 250 μL. Non-specific binding is determined in the presence of […] 5-HT, final ligand concentration is 1.5 nM. Following a 30 minute incubation at room temperature, the reaction is terminated by the addition of ice cold buffer and rapid filtration through a GF/B filter presoaked for 30 minutes in 0.5% PEI. Compounds are initially tested in a single point assay to determine percent inhibition at […], and Ki values are determined for the active compounds.

[4] = agonist activity, forskolin 1 μM, CHO cells, 10 minutes at 37° C.
[5] = [^3 H] 8-OH-DPAT 1.5 nM, CHO cells, 30 minute incubation at room temperature, read-out: 5-HT1A binding Ki

Emax (human 5HT1A receptor [1]; [4])	IC50 (human 5HT1A receptor [2])	Ki (human 5HT1A receptor [3]; [5])	Structure (SMILES)	Emax (human 5HT1A receptor [1]; CHO)	Ki (human 5HT1A receptor [3])
0%	46.9 nM	3.5 nM	COc1ccc(F)cc1C1CCN(C[C@@H](Cc2ccccc2)N(C)C(=O)NC2CCCCC2)CC1 [Example 1, 1-{(1R)-1-Benzyl-2-[4-(5-fluoro-2-methoxyphenyl)-piperidin-1-yl]-ethly}-1-3-cyclohexyl-1-methyl-urea]		
			COc1ccc(F)cc1C1=CCN(C[C@@H](Cc2ccccc2)N(C)C(=O)N2CCOCC2)CC1 [Example 2, Morpholine-4-carboxylic acid {(1R)-1-benzyl-2-[4-(5-fluoro-2-methoxy-phenyl)-1,2,5,6-tetrahydro-4H-pyridin-1-yl]-ethyl}-methyl-amide]	0%	26.6 nM
0%	12.6 nM	3.5 nM	COc1ccc(F)cc1C1=CCN(C[C@@H](Cc2ccccc2)N(C)C(=O)NC2CCCCC2)CC1 [Example 3, 1-{(1R)-1-Benzyl-2-[4-(5-fluoro-2-methoxy-phenyl)-1,2,5,6-tetrahydro-4H-pyridin-1-yl]-ethyl-}-3-cyclohexyl-1-methyl-urea]		
